PubChem BioAssay AID180 (DTP/NCI, 2004)
Values joined by “and” are separate entries in the source; they are usually repeats but may differ in a detail not shown here. Equal entries are not always repeated.

Test system: BDF1 mice, Adenocarcinoma 755 s.c., tumor weight T/C
Assay: NCI In Vivo Anticancer Drug Screen. Data for tumor model Adenocarcinoma 755 (subcutaneous) in B6D2F1 (BDF1) mice
Details: endpoint: mean tumor weight, higher = larger tumour
In short: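 Transplantable tumor implanted; mice dosed with compound or vehicle; survival or tumor size recorded; ratio of treated to vehicle control reported.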

[1] = dose: 31.0 mg/kg/injection, schedule: Q01DX011 (ip), vehicle: methylcellulose (MC)
[2] = dose: 62.0 mg/kg/injection, schedule: Q01DX011 (ip), vehicle: methylcellulose (MC)
[3] = dose: 125.0 mg/kg/injection, schedule: Q01DX011 (ip), vehicle: methylcellulose (MC)
[4] = dose: 250.0 mg/kg/injection, schedule: Q01DX011 (ip), vehicle: methylcellulose (MC)
[5] = dose: 15.0 mg/kg/injection, schedule: Q01DX011 (ip), vehicle: methylcellulose (MC)
[6] = dose: 10.0 mg/kg/injection, schedule: Q01DX011 (ip), vehicle: carboxymethylcellulose (CMC)
[7] = dose: 20.0 mg/kg/injection, schedule: Q01DX011 (ip), vehicle: carboxymethylcellulose (CMC)
[8] = dose: 25.0 mg/kg/injection, schedule: Q01DX011 (ip), vehicle: methylcellulose (MC)
[9] = dose: 75.0 mg/kg/injection, schedule: Q01DX011 (ip), vehicle: methylcellulose (MC)
[10] = dose: 225.0 mg/kg/injection, schedule: Q01DX011 (ip), vehicle: methylcellulose (MC)
[11] = dose: 50.0 mg/kg/injection, schedule: Q01DX011 (ip), vehicle: methylcellulose (MC)
[12] = dose: 100.0 mg/kg/injection, schedule: Q01DX011 (ip), vehicle: methylcellulose (MC)

Nc1nc(=S)cc(Nc2ccccc2Cl)[nH]1
T/C [1]: 101 % of control
T/C [2]: 156 % of control
T/C [3]: 93 % of control
T/C [4]: 122 % of control

CSc1ncnc2c1ncn2CCCl
T/C (dose: 1.5 mg/kg/injection, schedule: Q01DX011 (ip), vehicle: carboxymethylcellulose (CMC)): 92 % of control
T/C (dose: 3.0 mg/kg/injection, schedule: Q01DX011 (ip), vehicle: carboxymethylcellulose (CMC)): 80 % of control
T/C (dose: 6.0 mg/kg/injection, schedule: Q01DX011 (ip), vehicle: carboxymethylcellulose (CMC)): 31 % of control
T/C (dose: 6.2 mg/kg/injection, schedule: Q01DX011 (ip), vehicle: carboxymethylcellulose (CMC)): 34 % of control
T/C (dose: 12.5 mg/kg/injection, schedule: Q01DX011 (ip), vehicle: carboxymethylcellulose (CMC)): 4 % of control

O=C(Nc1ccc(C2=NCCCN2)cc1)c1ccc(C(=O)Nc2ccc(C3=NCCCN3)cc2)cc1
T/C (dose: 0.4 mg/kg/injection, schedule: Q01DX011 (ip), vehicle: water): 103 % of control
T/C (dose: 0.8 mg/kg/injection, schedule: Q01DX011 (ip), vehicle: water): 117 % of control
T/C (dose: 1.6 mg/kg/injection, schedule: Q01DX011 (ip), vehicle: water): 94 % of control
T/C (dose: 3.2 mg/kg/injection, schedule: Q01DX011 (ip), vehicle: water): 97 % of control

CSc1nc(S(C)(=O)=O)ncc1C
T/C [5]: 86 % of control
T/C [1]: 94 % of control
T/C [2]: 154 % of control

[I][Hg][CH2]C1OCCOC1[CH2][Hg][I] (stereo not drawn)
T/C (dose: 2.5 mg/kg/injection, schedule: Q01DX011 (ip), vehicle: carboxymethylcellulose (CMC)): 73 % of control
T/C (dose: 5.0 mg/kg/injection, schedule: Q01DX011 (ip), vehicle: carboxymethylcellulose (CMC)): 39 % of control
T/C [6]: 40 % of control
T/C (dose: 11.0 mg/kg/injection, schedule: Q01DX011 (ip), vehicle: other): 73 % of control
T/C (dose: 16.0 mg/kg/injection, schedule: Q01DX011 (ip), vehicle: carboxymethylcellulose (CMC)): 41 % of control
T/C [7]: 30 % of control
T/C (dose: 22.0 mg/kg/injection, schedule: Q01DX011 (ip), vehicle: other): 61 % of control
T/C (dose: 32.0 mg/kg/injection, schedule: Q01DX011 (ip), vehicle: carboxymethylcellulose (CMC)): 6 % of control
T/C (dose: 44.0 mg/kg/injection, schedule: Q01DX011 (ip), vehicle: other): 53 % of control
T/C (dose: 66.0 mg/kg/injection, schedule: Q01DX011 (ip), vehicle: other): 37 % of control

Cc1cnc(SCc2ccc(Cl)cc2Cl)nc1Nc1ccc(Cl)c(Cl)c1
T/C [5]: 74 % of control
T/C [1]: 97 % of control
T/C [2]: 69 % of control

CC(C)Cn1cnc2c(=S)nc(N)[nH]c21
T/C (dose: 3.9 mg/kg/injection, schedule: Q01DX011 (ip), vehicle: methylcellulose (MC)): 5 % of control

O=C(CCBr)N1CCC(CCC2CCN(C(=O)CCBr)CC2)CC1
T/C [8]: 94 % of control
T/C [9]: 68 % of control
T/C [10]: 43 % of control

C=CC(O)CN1CC1=C (stereo not drawn)
T/C (dose: 1.9 mg/kg/injection, schedule: Q01DX011 (ip), vehicle: methylcellulose (MC)): 77 % of control
T/C (dose: 3.75 mg/kg/injection, schedule: Q01DX011 (ip), vehicle: methylcellulose (MC)): 111 % of control
T/C (dose: 7.5 mg/kg/injection, schedule: Q01DX011 (ip), vehicle: methylcellulose (MC)): 73 % of control
T/C [5]: 21 % of control

COC(=O)c1nc(-c2ccc3c(n2)C(=O)C(N)=C(OC)C3=O)c(N)c(-c2ccc(OC)c(OC)c2O)c1C
T/C (dose: 0.31 mg/kg/injection, schedule: Q01DX011 (ip), vehicle: other): 42 % of control
T/C (dose: 0.63 mg/kg/injection, schedule: Q01DX011 (ip), vehicle: other): 14 % of control
T/C (dose: 1.25 mg/kg/injection, schedule: Q01DX011 (ip), vehicle: other): 1 % of control
T/C (dose: 6.0 mg/kg/injection, schedule: Q01DX006 (ip), vehicle: water): 40 % of control
T/C (dose: 12.5 mg/kg/injection, schedule: Q01DX006 (ip), vehicle: water): 7 % of control

CC(=O)Nc1c(Cl)c(Cl)c2c(c1Cl)C(=O)c1cc(Cl)ccc1-2
T/C [11]: 57 % of control
T/C (dose: 50.0 mg/kg/injection, schedule: Q01DX011 (ip), vehicle: other): 100 % of control and 112 % of control
T/C [12]: 65 % of control
T/C (dose: 100.0 mg/kg/injection, schedule: Q01DX011 (ip), vehicle: other): 65 % of control
T/C (dose: 400.0 mg/kg/injection, schedule: Q01DX011 (ip), vehicle: other): 41 % of control and 64 % of control and 66 % of control
T/C (dose: 800.0 mg/kg/injection, schedule: Q01DX011 (ip), vehicle: other): 59 % of control

CCOC(=O)C1=C(C)NC(C)=C(C(=O)OCC)C1C
T/C (dose: 31.2 mg/kg/injection, schedule: Q01DX011 (ip), vehicle: other): 85 % of control
T/C (dose: 62.5 mg/kg/injection, schedule: Q01DX011 (ip), vehicle: other): 77 % of control
T/C (dose: 125.0 mg/kg/injection, schedule: Q01DX011 (ip), vehicle: other): 79 % of control and 81 % of control

CSc1ncc(Br)c(NCc2ccccc2Cl)n1
T/C [8]: 65 % of control
T/C [1]: 106 % of control
T/C [2]: 103 % of control
T/C [3]: 85 % of control
T/C [4]: 80 % of control

Cc1cc(=O)c2c(C)cccc2[nH]1
T/C [6]: 112 % of control
T/C (dose: 10.0 mg/kg/injection, schedule: Q01DX011 (ip), vehicle: methylcellulose (MC)): 60 % of control
T/C [7]: 105 % of control
T/C (dose: 20.0 mg/kg/injection, schedule: Q01DX011 (ip), vehicle: methylcellulose (MC)): 59 % of control
T/C (dose: 40.0 mg/kg/injection, schedule: Q01DX011 (ip), vehicle: carboxymethylcellulose (CMC)): 86 % of control
T/C (dose: 40.0 mg/kg/injection, schedule: Q01DX011 (ip), vehicle: methylcellulose (MC)): 72 % of control
T/C (dose: 80.0 mg/kg/injection, schedule: Q01DX011 (ip), vehicle: carboxymethylcellulose (CMC)): 58 % of control and 60 % of control and 75 % of control
T/C (dose: 80.0 mg/kg/injection, schedule: Q01DX011 (ip), vehicle: methylcellulose (MC)): 57 % of control
T/C (dose: 160.0 mg/kg/injection, schedule: Q01DX011 (ip), vehicle: carboxymethylcellulose (CMC)): 106 % of control
T/C (dose: 320.0 mg/kg/injection, schedule: Q01DX011 (ip), vehicle: carboxymethylcellulose (CMC)): 106 % of control

CCc1c(Cl)nc(N)nc1Nc1ccc(Cl)c(Cl)c1
T/C [5]: 117 % of control
T/C [1]: 123 % of control

Nc1[nH]c(=O)[nH]c(=O)c1C(=O)CCl
T/C (dose: 30.0 mg/kg/injection, schedule: Q01DX011 (ip), vehicle: carboxymethylcellulose (CMC)): 77 % of control

Cc1cc2nc3c(=O)[nH]c(=O)nc-3n(CC(O)C(O)C(O)C(O)CO)c2cc1C (stereo not drawn)
T/C (dose: 12.0 mg/kg/injection, schedule: Q01DX011 (ip), vehicle: carboxymethylcellulose (CMC)): 96 % of control and 111 % of control
T/C (dose: 14.13 mg/kg/injection, schedule: Q01DX011 (ip), vehicle: carboxymethylcellulose (CMC)): 91 % of control
T/C (dose: 19.0 mg/kg/injection, schedule: Q01DX011 (ip), vehicle: carboxymethylcellulose (CMC)): 90 % of control and 76 % of control
T/C (dose: 26.25 mg/kg/injection, schedule: Q01DX011 (ip), vehicle: carboxymethylcellulose (CMC)): 79 % of control
T/C (dose: 28.25 mg/kg/injection, schedule: Q01DX011 (ip), vehicle: carboxymethylcellulose (CMC)): 122 % of control
T/C (dose: 52.5 mg/kg/injection, schedule: Q01DX011 (ip), vehicle: carboxymethylcellulose (CMC)): 95 % of control
T/C (dose: 56.5 mg/kg/injection, schedule: Q01DX011 (ip), vehicle: carboxymethylcellulose (CMC)): 60 % of control
T/C (dose: 62.5 mg/kg/injection, schedule: Q01DX011 (ip), vehicle: methylcellulose (MC)): 94 % of control
T/C (dose: 105.0 mg/kg/injection, schedule: Q01DX011 (ip), vehicle: carboxymethylcellulose (CMC)): 116 % of control
T/C (dose: 113.0 mg/kg/injection, schedule: Q01DX011 (ip), vehicle: carboxymethylcellulose (CMC)): 62 % of control
T/C [3]: 27 % of control
T/C (dose: 210.0 mg/kg/injection, schedule: Q01DX011 (ip), vehicle: carboxymethylcellulose (CMC)): 101 % of control

O=C(CCCl)N1CCN(c2ccccc2)CC1
T/C [8]: 51 % of control
T/C [9]: 61 % of control
T/C [10]: 60 % of control

CCOCCNc1ncnc2c1cnn2C
T/C (dose: 12.5 mg/kg/injection, schedule: Q01DX011 (ip), vehicle: methylcellulose (MC)): 112 % of control
T/C [8]: 65 % of control
T/C [11]: 38 % of control
T/C [12]: 17 % of control
